test system: HBV; test: HBV inhibition assay in HepAD38 cells (extracellular HBV DNA by direct qPCR); assay type: cell-based; settings: Hepatitis B virus, 8-point dose-response curve, 96 hours, read-out: HBV inh EC50
How it was run: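 HepAD38 cells (HepG2, tetracycline-off HBV) induced in tetracycline-free medium, treated 96 h at 37 °C with compound, 0.5% DMSO. Extracellular HBV DNA quantified by direct SYBR qPCR of lysed supernatant, as % of untreated; EC50 from 8-point 1:2 curves; cytotoxicity by CellTiter-Blue.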

Row | SMILES | EC50
1 | O=C(Nc1cc(F)c(F)c(F)c1)c1ccc2c(c1)S(=O)(=O)NC(C1CCNCC1)N2 (stereo not shown) [Example E32, 3-(piperidin-4-yl)-N-(3,4,5-trifluorophenyl)-3,4-dihydro-2H-benzo[e][1,2,4]thiadiazine-7-carboxamide 1,1-dioxide] | < 1 µM
2 | Cc1cc(C(=O)Nc2cc(F)c(F)c(F)c2)cc2c1NCNS2(=O)=O [Example E88, 5-methyl-N-(3,4,5-trifluorophenyl)-3,4-dihydro-2H-benzo[e][1,2,4]thiadiazine-7-carboxamide 1,1-dioxide] | > 1 µM
3 | O=C(Nc1cc(F)c(F)c(F)c1)c1ccc2c(c1)S(=O)(=O)NCCN2 [Example E94, N-(3,4,5-trifluorophenyl)-2,3,4,5-tetrahydrobenzo[f][1,2,5]thiadiazepine-8-carboxamide 1,1-dioxide] | > 1 µM

same assay, conditions: Hepatitis B virus, compound at 0.1 µM, 96 hours, relative to non-treated reference, read-out: Anti HBV Activity (conc µM)

Row | SMILES | inhibition at 0.1 µM
4 | O=C(Nc1cc(F)c(F)c(F)c1)c1ccc2c(c1)S(=O)(=O)N([C@H]1CCNC1)C(=O)N2 [Example E84, (S)-3-oxo-2-(pyrrolidin-3-yl)-N-(3,4,5-trifluorophenyl)-3,4-dihydro-2H-benzo[e][1,2,4]thiadiazine-7-carboxamide 1,1-dioxide] | < 50%

same assay, conditions: Hepatitis B virus, compound at 0.5 µM, 96 hours, relative to non-treated reference, read-out: Anti HBV Activity (conc µM)

Row | SMILES | inhibition at 0.5 µM
5 | C[C@H](O)C1Nc2ccc(C(=O)Nc3cc(F)c(F)c(F)c3)cc2S(=O)(=O)N1 (stereo partly drawn) [Example E23, 3-((S)-1-hydroxyethyl)-N-(3,4,5-trifluorophenyl)-3,4-dihydro-2H-benzo[e][1,2,4]thiadiazine-7-carboxamide 1,1-dioxide] | > 50%
6 | C[C@@H](N1C(=O)Nc2ccc(C(=O)Nc3cc(F)c(F)c(F)c3)cc2S1(=O)=O)C(F)(F)F [Example E77, (R)-3-oxo-N-(3,4,5-trifluorophenyl)-2-(1,1,1-trifluoropropan-2-yl)-3,4-dihydro-2H-benzo[e][1,2,4]thiadiazine-7-carboxamide 1,1-dioxide] | < 50%
7 | O=C(Nc1cc(F)c(F)c(F)c1)c1ccc2c(c1)S(=O)(=O)NC(c1ncccn1)N2 (stereo not shown) [Example E54, 3-(pyrimidin-2-yl)-N-(3,4,5-trifluorophenyl)-3,4-dihydro-2H-benzo[e][1,2,4]thiadiazine-7-carboxamide 1,1-dioxide] | > 50%
8 | O=C(Nc1cc(F)c(F)c(F)c1)c1ccc2c(c1)S(=O)(=O)NC1(N2)C(=O)Nc2ccccc21 (racemic) [Example E56, 2'-oxo-N-(3,4,5-trifluorophenyl)-2H,4H-spiro[benzo[e][1,2,4]thiadiazine-3,3'-indoline]-7-carboxamide 1,1-dioxide] | > 50%
9 | C[C@H](O)C1=NS(=O)(=O)c2cc(C(=O)Nc3cc(F)c(F)c(F)c3)ccc2N1 [Example E25, (S)-3-(1-hydroxyethyl)-N-(3,4,5-trifluorophenyl)-4H-benzo[e][1,2,4]thiadiazine-7-carboxamide1,1-dioxide] | < 50%
10 | O=C(Nc1ccc(Cl)nc1)c1ccc2c(c1)S(=O)(=O)NCN2 [Example E92, N-(6-chloropyridin-3-yl)-3,4-dihydro-2H-benzo[e][1,2,4]thiadiazine-7-carboxamide 1,1-dioxide] | < 50%
11 | O=C(Nc1cc(F)c(F)c(F)c1)c1cnc2c(c1)S(=O)(=O)NCN2 [Example E93, N-(3,4,5-trifluorophenyl)-3,4-dihydro-2H-pyrido[2,3-e][1,2,4]thiadiazine-7-carboxamide 1,1-dioxide] | < 50%
12 | O=C(Nc1cc(F)c(F)c(F)c1)c1ccc2c(c1)S(=O)(=O)N(C1CC=C(CO)CC1)C(=O)N2 (stereo not shown) [Example E134, 2-(4-(hydroxymethyl)cyclohex-3-en-1-yl)-3-oxo-N-(3,4,5-trifluorophenyl)-3,4-dihydro-2H-benzo[e][1,2,4]thiadiazine-7-carboxamide 1,1-dioxide] | > 50%
13 | CN1C(C2CCNCC2)Nc2ccc(C(=O)Nc3cc(F)c(F)c(F)c3)cc2S1(=O)=O (stereo not shown) [Example E33, 2-methyl-3-(piperidin-4-yl)-N-(3,4,5-trifluorophenyl)-3,4-dihydro-2H-benzo[e][1,2,4]thiadiazine-7-carboxamide 1,1-dioxide] | < 50%
14 | CC1(c2cnccn2)Nc2ccc(C(=O)Nc3cc(F)c(F)c(F)c3)cc2S(=O)(=O)N1 (stereo not shown) [Example E55, 3-methyl-3-(pyrazin-2-yl)-N-(3,4,5-trifluorophenyl)-3,4-dihydro-2H-benzo[e][1,2,4]thiadiazine-7-carboxamide 1,1-dioxide] | > 50%

same assay, conditions: Hepatitis B virus, compound at 1 µM, 96 hours, relative to non-treated reference, read-out: Anti HBV Activity (conc µM)

Row | SMILES | inhibition at 1 µM
15 | O=C(Nc1ccc(F)c(F)c1)c1ccc2c(c1)S(=O)(=O)NC(CO)N2 (stereo not shown) [Example E119, N-(3,4-difluorophenyl)-3-(hydroxymethyl)-3,4-dihydro-2H-benzo[e][1,2,4]thiadiazine-7-carboxamide 1,1-dioxide] | > 50%
16 | O=C(Nc1cc(F)c(F)c(F)c1)c1ccc2c(c1)S(=O)(=O)N1CC[C@@H](C1)N2 [Example E105, (5S)-N-(3,4,5-trifluorophenyl)-3,4,5,6-tetrahydro-2,5-methanobenzo[g][1,2,6]thiadiazocine-9-carboxamide 1,1-dioxide] | < 50%
17 | CC1(c2ccncc2)Nc2ccc(C(=O)Nc3cc(F)c(F)c(F)c3)cc2S(=O)(=O)N1 (stereo not shown) [Example E39, 3-methyl-3-(pyridin-4-yl)-N-(3,4,5-trifluorophenyl)-3,4-dihydro-2H-benzo[e][1,2,4]thiadiazine-7-carboxamide 1,1-dioxide] | > 50%
18 | O=C(Nc1cc(F)c(F)c(F)c1)c1cc2c(cc1F)N=CNS2(=O)=O [Example E68, 6-fluoro-N-(3,4,5-trifluorophenyl)-2H-benzo[e][1,2,4]thiadiazine-7-carboxamide 1,1-dioxide] | < 50%
19 | CC(=O)NCC1Nc2ccc(C(=O)Nc3cc(F)c(F)c(F)c3)cc2S(=O)(=O)N1 (stereo not shown) [Example E30, 3-(acetamidomethyl)-N-(3,4,5-trifluorophenyl)-3,4-dihydro-2H-benzo[e][1,2,4]thiadiazine-7-carboxamide 1,1-dioxide] | > 50%
20 | O=C(Nc1cc(F)c(F)c(F)c1)c1ccc2c(c1)S(=O)(=O)N1CCOCC1CN2 (stereo not shown) [Example E108, N-(3,4,5-trifluorophenyl)-1,3,4,11,12,12a-hexahydrobenzo[f][1,4]oxazino[4,3-b][1,2,5]thiadiazepine-8-carboxamide 6,6-dioxide] | < 50%
21 | O=C(Nc1cc(F)c(F)c(F)c1)c1ccc2c(c1)S(=O)(=O)NC(c1ccc(C(F)(F)F)nc1)N2 (stereo not shown) [Example E42, 3-(6-(trifluoromethyl)pyridin-3-yl)-N-(3,4,5-trifluorophenyl)-3,4-dihydro-2H-benzo[e][1,2,4]thiadiazine-7-carboxamide 1,1-dioxide] | > 50%
22 | O=C(Nc1cc(F)c(F)c(F)c1)c1ccc2c(c1)S(=O)(=O)N1CCCC[C@H]1CN2 [Example E103, (S)-N-(3,4,5-trifluorophenyl)-1,3,4,11,12,12a-hexahydro-2H-benzo[f]pyrido[1,2-b][1,2,5]thiadiazepine-8-carboxamide 6,6-dioxide] | < 50%
23 | O=C(Nc1cc(F)c(F)c(F)c1)c1ccc2c(c1)S(=O)(=O)N1CCCC[C@@H]1CN2 [Example E104, (R)-N-(3,4,5-trifluorophenyl)-1,3,4,11,12,12a-hexahydro-2H-benzo[f]pyrido[1,2-b][1,2,5]thiadiazepine-8-carboxamide 6,6-dioxide] | > 50%
24 | CC(C)(C)OC(=O)N1CCC(C2Nc3ccc(C(=O)Nc4cc(F)c(F)c(F)c4)cc3S(=O)(=O)N2)CC1 (stereo not shown) [Example E31, tert-butyl 4-(1,1-dioxido-7-((3,4,5-trifluorophenyl)carbamoyl)-3,4-dihydro-2H-benzo[e] [1,2,4]thiadiazin-3-yl)piperidine-1-carboxylate] | > 50%
25 | CC1Nc2ccc(C(=O)Nc3ccc(F)c(F)c3)cc2S(=O)(=O)N1 (stereo not shown) [Example E20, N-(3,4-difluorophenyl)-3-methyl-3,4-dihydro-2H-benzo[e][1,2,4]thiadiazine-7-carboxamide 1,1-dioxide] | > 50%
26 | CN1CNS(=O)(=O)c2cc(C(=O)Nc3cc(F)c(F)c(F)c3)ccc21 [Example E3, 4-methyl-N-(3,4,5-trifluorophenyl)-3,4-dihydro-2H-benzo[e][1,2,4]thiadiazine-7-carboxamide 1,1-dioxide] | < 50%
27 | O=C(Nc1cc(F)c(F)c(F)c1)c1ccc2c(c1)S(=O)(=O)NC1(COC1)CO2 [Example E140, N-(3,4,5-trifluorophenyl)-2H,4H-spiro[benzo[b][1,4,5]oxathiazepine-3,3'-oxetane]-8-carboxamide 1,1-dioxide] | < 50%
28 | O=C(Nc1cc(F)c(F)c(F)c1)c1ccc2c(c1)S(=O)(=O)N[C@H]1CCC[C@H]1N2 [Example E137, (3aS,10aR)-N-(3,4,5-trifluorophenyl)-2,3,3a,4,10,10a-hexahydro-1H-benzo[f]cyclopenta[c][1,2,5]thiadiazepine-7-carboxamide 5,5-dioxide] | < 50%
29 | Cc1nc(C)c(C2Nc3ccc(C(=O)Nc4ccc(F)c(F)c4)cc3S(=O)(=O)N2)o1 (stereo not shown) [Example E38, N-(3,4-difluorophenyl)-3-(2,4-dimethyloxazol-5-yl)-3,4-dihydro-2H-benzo[e][1,2,4]thiadiazine-7-carboxamide 1,1-dioxide] | > 50%
30 | O=C(Nc1ccc(F)c(F)c1)c1ccc2c(c1)S(=O)(=O)NC(c1cccnc1)N2 (stereo not shown) [Example E47, N-(3,4-difluorophenyl)-3-(pyridin-3-yl)-3,4-dihydro-2H-benzo[e][1,2,4]thiadiazine-7-carboxamide 1,1-dioxide] | > 50%
31 | O=C(Nc1cc(F)c(F)c(F)c1)c1ccc2c(c1)S(=O)(=O)N1CCC(C1)O2 (stereo not shown) [Example E118, N-(3,4,5-trifluorophenyl)-4,5-dihydro-3H-2,5-methanobenzo[b][1,4,5]oxathiazocine-9-carboxamide 1,1-dioxide] | < 50%

From patent EP3597653A1, “CYCLIC INHIBITORS OF HEPATITIS B VIRUS” (IRBM S.P.A., priority 2018, dated 2020)
